For 8 molecules, TGI results are on record in PubChem BioAssay (NCI).

Among the test systems are CCRF-CEM leukemia; COLO 205 colon; HL-60(TB) leukemia; HT29 colon; IGROV1 ovarian; K-562 leukemia; MALME-3M melanoma; MDA-MB-231 breast; MDA-MB-435; MOLT-4 leukemia; NCI-H522 lung; OVCAR-4 ovarian; OVCAR-8 ovarian; SN12C renal; SNB-19 CNS; TK-10 renal; U251 CNS; UO-31 renal.
Assay in all cases: NCI anticancer screen, dose series, 48 h

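Five compound concentrations were applied to cells in 96-well plates for 48 hours; endpoints were derived by simple linear interpolation of the resulting dose-response curve. TGI marks complete inhibition of growth.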

As to `CC(C)=CCS(=O)c1ccccc1NC1=CC(=O)CC(C)(C)C1` (stereo unspecified), the TGI in the assay with CCRF-CEM leukemia, in the assay on COLO 205 colon, in the assay on HL-60(TB) leukemia, with HT29 colon, with IGROV1 ovarian and with K-562 leukemia was more than 100 µM in each case. Besides, the TGI in the assay with MALME-3M melanoma, in the assay with MDA-MB-231 breast, with MDA-MB-435, with MOLT-4 leukemia, in the assay on NCI-H522 lung and in the assay with OVCAR-4 ovarian was more than 100 µM each time. For the same molecule, the TGI with OVCAR-8 ovarian was more than 100 µM; in the assay with SN12C renal, more than 100 µM; in the assay on SNB-19 CNS it was more than 100 µM; in the assay with TK-10 renal it was more than 100 µM; in the assay with U251 CNS, 2.42 µM; in the assay on UO-31 renal, more than 100 µM.

As to `COC1=C(Br)[C@H](O)[C@@]2(C=C1Br)CC(C(=O)NCCCCCN=C(N)N)=NO2`, the TGI with CCRF-CEM leukemia, in the assay on COLO 205 colon, with HL-60(TB) leukemia, in the assay with HT29 colon, in the assay with IGROV1 ovarian and in the assay on K-562 leukemia was more than 10 µM each time. Moreover, the TGI with MALME-3M melanoma, in the assay with MDA-MB-231 breast, in the assay on MDA-MB-435, with MOLT-4 leukemia, in the assay with NCI-H522 lung and in the assay with OVCAR-4 ovarian was more than 10 µM throughout. Besides, the TGI in the assay with OVCAR-8 ovarian, in the assay on SN12C renal, in the assay on SNB-19 CNS, in the assay on TK-10 renal, with U251 CNS and with UO-31 renal was more than 10 µM throughout.

`CCOC(=O)C(N)CSC(=O)NC` (stereo unspecified): the TGI with CCRF-CEM leukemia is 147 µM; with COLO 205 colon, 360 µM; in the assay with HL-60(TB) leukemia, 272 µM; with HT29 colon, 399 µM; in the assay on IGROV1 ovarian, 481 µM; in the assay on K-562 leukemia, 284 µM. Also, the TGI in the assay on MALME-3M melanoma was 306 µM; in the assay on MDA-MB-231 breast, 340 µM; in the assay on MDA-MB-435, 98.4 µM; in the assay with MOLT-4 leukemia, 215 µM; in the assay with NCI-H522 lung, 472 µM; in the assay on OVCAR-4 ovarian it was 481 µM. For the same molecule, the TGI worked out at 314 µM in the assay on OVCAR-8 ovarian; 213 µM in the assay on SN12C renal; 600 µM in the assay on SNB-19 CNS; 566 µM in the assay with TK-10 renal; 347 µM in the assay on U251 CNS; 602 µM with UO-31 renal.

As for `N#CSc1nc[nH]c1C(N)=O`, the TGI in the assay with CCRF-CEM leukemia is 14.4 µM; in the assay on COLO 205 colon it was more than 100 µM; in the assay with HL-60(TB) leukemia, 6.86 µM; with HT29 colon it was more than 100 µM; in the assay on IGROV1 ovarian it was more than 100 µM; in the assay on K-562 leukemia, more than 100 µM. For the same molecule, the TGI with MALME-3M melanoma is 56.6 µM; with MDA-MB-231 breast, more than 100 µM; in the assay on MDA-MB-435, more than 100 µM; in the assay with NCI-H522 lung, more than 100 µM; in the assay on OVCAR-4 ovarian, more than 100 µM; in the assay with OVCAR-8 ovarian, more than 100 µM. For the same molecule, the TGI in the assay on SN12C renal was 90 µM; in the assay on SNB-19 CNS, more than 100 µM; in the assay on TK-10 renal, more than 100 µM; in the assay with U251 CNS it was more than 100 µM; in the assay with UO-31 renal, more than 100 µM.

`COc1ccc(CCNC2=CC(=O)c3ncccc3C2=O)cc1OC`: the TGI in the assay with CCRF-CEM leukemia was determined as 39.1 µM; in the assay on COLO 205 colon, 3.23 µM; in the assay with HL-60(TB) leukemia, 10.6 µM; with HT29 colon it was 4.73 µM; in the assay on IGROV1 ovarian, 7.63 µM; in the assay on K-562 leukemia, 8.28 µM. In addition, the TGI was found to be 2.03 µM in the assay with MALME-3M melanoma; 3.72 µM in the assay on MDA-MB-231 breast; 0.924 µM in the assay with MDA-MB-435; 23.7 µM in the assay with MOLT-4 leukemia; 8.36 µM with NCI-H522 lung; 16.7 µM in the assay on OVCAR-4 ovarian. The TGI in the assay on OVCAR-8 ovarian was 17.2 µM; with SN12C renal, 3.59 µM; with SNB-19 CNS, 7.27 µM; in the assay with TK-10 renal, more than 86 µM; in the assay with U251 CNS, 14 µM; in the assay on UO-31 renal, 13.1 µM.

For `CCOC(=O)CC1c2ccc(O)cc2OC(=O)C1c1ccc([N+](=O)[O-])cc1` (stereo unspecified), the TGI is 62.1 µM in the assay with CCRF-CEM leukemia; 33 µM in the assay on COLO 205 colon; 60 µM in the assay on HL-60(TB) leukemia; more than 100 µM with HT29 colon; 60.5 µM in the assay on IGROV1 ovarian; more than 100 µM in the assay with K-562 leukemia. The TGI in the assay with MALME-3M melanoma is 70.3 µM; in the assay on MDA-MB-231 breast, 48.6 µM; in the assay with MDA-MB-435 it was 56.1 µM; with MOLT-4 leukemia, 78.6 µM; with NCI-H522 lung, 66.5 µM; in the assay with OVCAR-4 ovarian it was 92.3 µM. Further, the TGI with OVCAR-8 ovarian is 75.7 µM; with SN12C renal, 81.3 µM; in the assay on SNB-19 CNS, more than 100 µM; with TK-10 renal, 75.3 µM; in the assay on U251 CNS, more than 100 µM.

Take `CSC1=C(SC)SC(=C2SC3=C(SC(=C4SCCS4)S3)S2)S1`: the TGI in the assay on CCRF-CEM leukemia, in the assay with COLO 205 colon, in the assay on HL-60(TB) leukemia, in the assay on HT29 colon, in the assay with IGROV1 ovarian and in the assay on MALME-3M melanoma was more than 100 µM in each case. The TGI in the assay with MDA-MB-231 breast, in the assay with MDA-MB-435, in the assay on MOLT-4 leukemia, in the assay with NCI-H522 lung, with OVCAR-4 ovarian and with OVCAR-8 ovarian was more than 100 µM in each case. The TGI in the assay with SN12C renal, in the assay with SNB-19 CNS, in the assay on TK-10 renal, with U251 CNS and in the assay on UO-31 renal was more than 100 µM throughout.

Regarding `COc1ccc(C[N+]23C(CC[C@H]2c2ccccc2)CC[C@H]3c2ccccc2)cc1` (stereo partly specified), the TGI in the assay on CCRF-CEM leukemia was more than 100 µM; in the assay with COLO 205 colon, 21.4 µM; in the assay on HL-60(TB) leukemia, 24.7 µM; in the assay with HT29 colon, more than 100 µM; in the assay with IGROV1 ovarian it was 36.5 µM; in the assay on K-562 leukemia it was more than 100 µM. The TGI in the assay on MALME-3M melanoma worked out at 30.8 µM; in the assay with MDA-MB-231 breast, 82.4 µM; in the assay on MDA-MB-435 it was 26.4 µM; in the assay on MOLT-4 leukemia, 90.1 µM; in the assay on NCI-H522 lung, 45.4 µM; with OVCAR-4 ovarian, 84.1 µM. The TGI in the assay on OVCAR-8 ovarian, with SN12C renal, with SNB-19 CNS, in the assay on TK-10 renal, with U251 CNS and with UO-31 renal was more than 100 µM each time.
